The target in assay [1] is T1, human B1R (Homo sapiens, UniProt P46663).
T1 construct: expressed in transfected cells; host or cells: CHO K1 cells (hB1R cells)
T1 sequence (P46663 1-353): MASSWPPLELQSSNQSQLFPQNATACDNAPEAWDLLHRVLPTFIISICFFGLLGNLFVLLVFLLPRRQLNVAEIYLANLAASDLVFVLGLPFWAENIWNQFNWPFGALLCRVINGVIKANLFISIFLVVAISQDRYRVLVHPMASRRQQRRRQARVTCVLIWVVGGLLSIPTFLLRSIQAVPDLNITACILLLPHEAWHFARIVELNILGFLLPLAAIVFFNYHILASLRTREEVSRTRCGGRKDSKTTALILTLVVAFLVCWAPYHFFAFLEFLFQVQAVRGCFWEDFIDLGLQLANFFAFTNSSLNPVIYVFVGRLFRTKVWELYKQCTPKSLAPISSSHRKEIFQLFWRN
Nature of the assay: FLIPR Ca2+ influx assay, B1R antagonism, human (hB1R CHO K1 cells). In kind it is cell-based. To be noted: test substance 10 μM; CHO K1 cells stably transfected with human B1R; agonist Lys-Des-Arg9-bradykinin at EC80; % inhibition compared with maximum achievable inhibition; read-out: B1R antagonism, human [10 μM] % inhibition. In outline:
(§1)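 CHO K1 cells stably expressing human or rat B1R were loaded with Fluo-4, and Ca^2+ fluorescence was read on a FLIPR. After 10–20 min with test substance, agonist was added at EC80: Lys-Des-Arg^9-bradykinin for hB1R, Des-Arg^9-bradykinin for rB1R. % inhibition is relative to maximal inhibition; IC50 from multiple concentrations, n=2–3, N≥2.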

Assay [2] has as its target T2, B1R of the rat (Rattus norvegicus, UniProt P97583).
T2 construct: expressed in transfected cells; host or cells: CHO K1 cells (rB1R cells)
T2 sequence (P97583 1-337): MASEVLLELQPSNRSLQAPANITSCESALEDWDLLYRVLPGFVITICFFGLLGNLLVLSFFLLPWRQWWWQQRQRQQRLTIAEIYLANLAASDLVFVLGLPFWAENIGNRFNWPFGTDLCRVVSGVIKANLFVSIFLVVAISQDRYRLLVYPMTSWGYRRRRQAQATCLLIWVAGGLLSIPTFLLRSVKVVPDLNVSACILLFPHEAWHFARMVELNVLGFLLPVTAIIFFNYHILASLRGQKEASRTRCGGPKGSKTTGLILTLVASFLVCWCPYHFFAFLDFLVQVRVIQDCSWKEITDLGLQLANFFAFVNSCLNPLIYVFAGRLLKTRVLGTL
Nature of the assay: FLIPR Ca2+ influx assay, B1R antagonism, rat (rB1R CHO K1 cells). In kind it is cell-based. To be noted: test substance 10 μM; CHO K1 cells stably transfected with rat B1R; agonist Des-Arg9-bradykinin at EC80; % inhibition compared with maximum achievable inhibition; read-out: B1R antagonism, rat [10 μM] % inhibition. An outline of the steps: as §1

The results in this text go back to US8124624B2, “Substituted sulfonamide compounds” (Gruenenthal GmbH, priority 2008, dated 2012).

Where a name gives a salt, the structure may show the parent alone.

As a reminder, the inhibition is the relative decrease from the control value, in per cent. As to `COc1cc(C)c(S(=O)(=O)N2CCCC[C@H]2COCC(=O)N2CCC(CCN3CCCC3)(c3cccnc3)CC2)c(C)c1` [Example 80, 2-[[(2S)-1-[(4-Methoxy-2,6-dimethyl-phenyl)sulfonyl]-piperidin-2-yl]-methoxy]-1-[4-pyridin-3-yl-4-(2-pyrrolidin-1-yl-ethyl)-piperidin-1-yl]-ethanone hydrochloride], the inhibition at 10 µM in assay [1] was 100%; in assay [2], 104%.
For `COc1cc(C)c(S(=O)(=O)N2CCCC[C@H]2COCC(=O)N2CCC(CCCN3CCCC3)(c3cccnc3)CC2)c(C)c1` [Example 81, 2-[[(2S)-1-[(4-Methoxy-2,6-dimethyl-phenyl)sulfonyl]-piperidin-2-yl]-methoxy]-1-[4-pyridin-3-yl-4-(3-pyrrolidin-1-yl-propyl)-piperidin-1-yl]-ethanone hydrochloride], the inhibition at 10 µM came to 100% in assay [1] and 102% in assay [2].
